Experimental data as given in patent publication US4931440A, “Uricosuric composition” (Fujisawa Pharmaceutical Company, Ltd., priority 1987, dated 1990).

Assays:
[1] = Uricosuric action: serum uric acid level in healthy male adult volunteers; format: in vivo, humans; details: single oral dose 600 mg (two capsules of Example 1), N = 6
Method: Compound A, in a single dose of 600 mg (two capsules according to the example (1) given hereinafter), was administered orally to six humans (healthy male adult volunteers) and the serum uric acid level was determined for 48 hours after administration.

[2] = Acute toxicity, oral, 14 days observation; details: rat, in vivo, male SD rats
Source text: Male SD rats (5 animals per group) were orally dosed with a suspension of the test compound in 0.5% methylcellulose solution and observed for 14 days after oral administration.

[3] = Effect on uric acid excretion in female rats (urinary uric acid assayed by HPLC); format: in vivo, female SD rats; details: p.o., urine collected 0-6 hr, dose 0: 3.07 ± 0.44
Method: Female SD rats (6 weeks old) were fasted for 18 hours and submitted to the test (3 animals per group).
Compound B was suspended in 0.5% methylcellulose solution and the suspension was orally administered in a dosing volume of 5 ml/kg.
At the same time, the animals were orally loaded with 20 ml/kg of physiological saline. Urine samples were collected up to 6 hours after drug administration. The uric acid in each urine sample was assayed by HPLC.

SMILES | Serum uric acid concentration, mean ± standard deviation ([1]; 4 Hrs. after administration, *: significant decrease from baseline (5.5500 ± 0.9439), < 0.05) | Serum uric acid concentration, mean ± standard deviation ([1]; 8 Hrs. after administration, **: significant decrease from baseline (5.5500 ± 0.9439), P < 0.01) | Serum uric acid concentration, mean ± standard deviation ([1]; 12 Hrs. after administration, **: significant decrease from baseline (5.5500 ± 0.9439), P < 0.01) | Serum uric acid concentration, mean ± standard deviation ([1]; 24 Hrs. after administration, *: significant decrease from baseline (5.5500 ± 0.9439), < 0.05) | Serum uric acid concentration, mean ± standard deviation ([1]; 48 Hrs. after administration, *: significant decrease from baseline (5.5500 ± 0.9439), < 0.05) | LD50 at 336 h [2] | Excretion of uric acid, mean ± S.E. ([3]; 10 mg/kg) | Excretion of uric acid, mean ± S.E. ([3]; 100 mg/kg) | Excretion of uric acid, mean ± S.E. ([3]; 320 mg/kg, *: P < 0.05)
O=C(O)Cn1c(=O)n(Cc2ccc(Br)cc2F)c(=O)c2ccc(Cl)cc21 [Compound A] | 4.5000 ± 0.6542 mg/dL | 4.0333 ± 0.6250 mg/dL | 4.1667 ± 0.7448 mg/dL | 4.3167 ± 0.7360 mg/dL | 4.5167 ± 0.5981 mg/dL | 4250 mg/kg | – | – | –
O=C(O)Cn1c(=O)n(Cc2ccc(Br)cc2F)c(=O)c2ccc(F)cc21 [Compound B, 2-[7-Fluoro-3-(4-bromo-2-fluorobenzyl)-1,2,3,4-tetrahydro-2,4-dioxoquinazolin-1-yl]acetic acid] | – | – | – | – | – | 2140 mg/kg | 3.36 ± 0.14 mg/kg | 4.02 ± 0.18 mg/kg | 4.88 ± 0.24 mg/kg
